From patent US20240173325A1, “METHODS FOR TREATING SPINAL MUSCULAR ATROPHY” (Genentech, Inc., priority 2022, published 2024)
“Also recorded” adds a separate entry of the source. Like-named read-outs stand apart in the source and are kept apart here.

Legend:
neonatal subject = assay: Clinical assessments of the neonatal subject (physical/neurologic exam, CHOP INTEND, HINE-2, Bayley-4, OrSAT, ultrasound); assay type: in vivo, human; settings: for CHOP INTEND: highest possible score 64; for Oral-motor assessment (OrSAT): maximum score 7
Method: Following birth, the neonatal subject, approximately one week and again at approximately six weeks of age, was assessed using the Hammersmith Infant Neurological Exam (HINE), Bayley Scales of Infant and Toddler Development, 4th edition (“Bayley™-4), the Children's Hospital of” Philadelphia Infant Test of Neuromuscular Disorders (CHOP INTEND), the Oral and Swallowing Abilities Tool (OrSAT), respiratory inductance plethysmography (RIP), a complete physical examination, anthropometric measurements (including vital signs, length, weight, head circumference and chest circumference), nerve conduction testing (specifically compound muscle action potential (CMAP) and motor unit number estimation (MUNE)), an ultrasound of the brain and muscles, blood and urine collection for CBC, CMP, U/A, and risdiplam PK/PD. The CBC, CMP, and U/A could be repeated at six weeks if the neonatal subject had not initiated any SMN-directed therapies, if there was a clinical indication upon physical examination, or if the one-week labs had clinically significant abnormal results.
The maximum score for the HINE-2 is 26 points, with a higher score reflecting a higher function, respectively.
Bayley™-4 is a comprehensive assessment tool for determining developmental delays in high-risk neonatal subjects. See Bayley & Aylward (2019) Bayley Scales of Infant and Toddler Development (4th ed.) technical manual. Bloomington, MN: NCS Pearson. Bayley™-4 scores from an assessment of early childhood development. Specifically, Bayley™-4 tests developmental skills such as cognitive, language, and motor skills of the neonatal subject. The scores represent how well the neonatal subject performed in these areas as compared to a group of neonatal subjects in the same age range. The Bayley™-4 mean standard score is 100 and the standard deviation is 15.
In Table 6, “CHOP INTEND” refers to a test that provides information about how strong the neonatal subject's muscles are and how well the neonatal subject can control his/her muscles. During the CHOP INTEND examination, a health care provider measures 16 types of muscle movements, which include head control (keeping the head upright), elbow flexion and knee extension (bending the joints), arm and leg mobility, and handgrip. […] All of the CHOP INTEND scores add up to one total score, with the highest possible score for the CHOP INTEND test being 64. With a score of 50 at 6 weeks and a score of 55 at 18 weeks, the neonatal subject was considered to be normal.
“OrSAT” or “Oral and Swallowing Abilities Tool” is a tool specifically designed to record structured information on different aspects related to oral, swallowing and feeding abilities in patients with type 1 SMA. See Berti (2022) Arch. Dis. Child. archdischild-2022-323899. Specifically, OrSAT includes several questions, where the responses are graded using a scoring system: each item is scored as 0 or 1 depending if the patient is able or unable to perform a given activity. Since some items are age-dependent, the number of items and the maximal score increases with an increasing age. If the neonatal subject younger than 6 months of age who cannot be assessed on swallowing semisolids or solids, the maximum score is 7, whereas if the neonatal subject is between 6 and 9 months of age, who can be assessed on this criteria, the maximum score is 10. If the neonatal subject is 10 months of age or older and can be assessed for all food consistencies, including solids, the maximum total score is 12. See Berti (2021) J. Neuromuscul. Dis. 8(4):589-601.
Muscle ultrasound was performed using a 11-mHz-linear array transducer (60 mm width) in B-mode (GE Vivid E95; GE, Chicago, IL, USA) to evaluate for muscle fasciculation in the right and left biceps, the abductor digiti minimi muscle, the quadriceps, the transverse abdominal muscle, the gastrocnemius-soleus, the lumbar paraspinals and the tongue. Thickness of the quadriceps muscle was measured. […]

[1] = Treatment emergent adverse events and safety monitoring of carrier, fetal subject and neonatal subject; assay type: in vivo, human; set-up: key to Serious (Y/N) / Study Term (Y/N): “Y” refers to yes; “N” refers to no; settings: for Adverse Event or MedDRA Term: exposed in utero, oral 0.15 mg/kg from 8 days post-birth, 0.15 mg/kg
Description: X1 included routine monitoring of the carrier for the third trimester, specifically with regards to development of hypertension and features of pre-eclampsia or HELLP syndrome, with related blood and urine testing. X1 also included monitoring nausea, vomiting, or dehydration in the carrier and placental integrity and amniotic fluid volume. X1 further included fetal monitoring for fetal growth, organ system development, and fetal well- being and any signs of organ maldevelopment, especially in the brain, heart, kidney, and liver. A baseline pre-treatment full anatomical ultrasound study and growth scan were performed and subsequent ultrasonography occurred at three and six weeks before delivery of the fetal subject as the neonatal subject.
Also in Table 3, “X2” included safety labs for the carrier, such as the CBC screening, the CMP screening, and the UA, to assess potential toxicity from risdiplam, which were collected before dosing and then prior to delivery. The safety labs were collected at the baseline before dosing, then every 3-4 weeks up to delivery, including pre-operatively prior to the scheduled cesarean section. More frequent testing may occur if clinically indicated.
In Table 4, the “X5” post-delivery PK/PD collection and safety labs of the neonatal subject included CBC screening, CMP screening, and UA, and such safety labs could be repeated if the results are deemed abnormal as compared to a healthy individual.
Table 5 summarizes results of the carrier and the fetal subject clinical assessments during the pregnancy of the carrier when exposed to risdiplam and in the neonatal subject for 6 weeks following delivery, for a minimum of 30 days following the last dose of risdiplam.
Specifically, Table 5 depicts the treatment emergent adverse events, seriousness of the event, intensity of the adverse event, relatedness of the adverse event to administration of the risdiplam, study term, and start and end dates for the adverse event the detected from this Example.
Each adverse event term is associated with a Medical Dictionary for Regulatory Activity (or MedDRA) term and the intensity is categorized based on the CTCAE grading. In Table 5, “Y” refers to yes and “N” refers to no and the intensity is measured from a lowest level of intensity or “I” to a highest level of intensity or “V.” “VSD” is a ventricular septal defect, “GERD” is gastroesophageal reflux disease, and “NICU” refers to neonatal intensive care unit.

rabbit fetuses = settings: cited from earlier work

SMILES: Cc1cn2nc(-c3cc(=O)n4cc(N5CCNC6(CC6)C5)ccc4n3)cc(C)c2n1 [risdiplam, 7-(4,7-diazaspiro[2.5]octan-7-yl)-2-(2,8-dimethylimidazo[1,2-b]pyridazin-6-yl)-4H-pyrido[1,2-a]pyrimidin-4-one]
- Ultrasound studies Neurosonogram Muscle (neonatal subject; 1 week): normal
- General Physical Exam (neonatal subject; 1 week to 18 weeks): Heart murmur (VSD)
- Neurologic Exam (neonatal subject; 1 week to 18 weeks): Normal, age-appropriate tone, posture,
- CHOP INTEND (neonatal subject; 1 week): 46
- Oral-motor assessment (OrSAT) (neonatal subject; 1 week): 7
- Mental status (neonatal subject; 2 weeks to 2 months): Somnolent and fussy
- Ultrasound studies Neurosonogram Muscle (neonatal subject; 6 weeks): normal
- CHOP INTEND (neonatal subject; 6 weeks): 50
- Oral-motor assessment (OrSAT) (neonatal subject; 6 weeks): 7
- Bayley-4 Adaptive Behavior (neonatal subject; 18 weeks): Behavior: 89
- Bayley-4 Cognitive (neonatal subject; 18 weeks): Cognitive: 95
- Bayley-4 Communication (neonatal subject; 18 weeks): Communication: 103
- Bayley-4 Social (neonatal subject; 18 weeks): Social: 95
- Ultrasound studies Neurosonogram Muscle (neonatal subject; 18 weeks): normal
- Oral-motor assessment (OrSAT) (neonatal subject; 18 weeks): 7
- HINE-2 (neonatal subject; 18 weeks, maximum score 26): 8
- Bayley-4 Motor (neonatal subject; 18 weeks, mean standard score 100, SD 15): Motor: 101
- APGAR score (neonatal subject; 1 minute): APGAR scores: 7
- APGAR score (neonatal subject; 5 minutes): minute), 8 (5 minutes)
- Growth (weight gain) (neonatal subject; after 2 months): Normal after
- Mental status (neonatal subject; after 2 months): Normal after
- General Physical Exam (neonatal subject; birth to 1 week): Respiratory distress
- Mental status (neonatal subject; birth to 1 week): Normal
- Neurologic Exam (neonatal subject; birth to 1 week): Normal, age- appropriate
- Ultrasound studies Neurosonogram Muscle (neonatal subject; birth to 1 week (DOL2)): normal DOL2
- Serious (Y/N) ([1]; carrier adverse events): N
- Study Term (Y/N) ([1]; carrier adverse events): N
- Overall safety and tolerability ([1]; carrier and subject as fetal and neonatal subject): no drug-related adverse events; also recorded: safe and well tolerated
- Surveillance labs during pregnancy ([1]; carrier while on risdiplam): normal until proteinuria was detected at 36WG
- Fetal ultrasound assessments ([1]; fetal subject during carrier treatment): unremarkable
- Biophysical profiles ([1]; fetal subject, each time point): normal
- CBC, CMP, and U/A ([1]; neonatal subject): normal
- Study Term (Y/N) ([1]; neonatal subject adverse events): N
- Adverse Event or MedDRA Term ([1]; neonatal subject, adverse event number 1): Respiratory
- Adverse Event or MedDRA Term ([1]; neonatal subject, adverse event number 2): Congenital disorder
- Adverse Event or MedDRA Term ([1]; neonatal subject, adverse event number 3): Weight gain
- Findings in rabbit fetuses (rabbit fetuses; at about 12 mg/kg/day): hydrocephalus, an abnormally small gall bladder, and lung variations
- Findings in rabbit fetuses (rabbit fetuses; dams treated at about 1 mg/kg/day to about 12 mg/kg/day): reduced weight gain and cranium or brain variations
